# Laboratory results taken from paper PMC5218480 (PLoS ONE, 2017).
# Tested on: MV-4-11 cells
# Assay: Gene expression microarray analysis (Affymetrix PrimeView) and GSEA
# Type: cell-based, human
# Set-up: RFU PODN (11730768_x_at) / Fold change /veh PODN (11730768_x_at) / RFU LINC00158 (11744669_a_at) / Fold change /veh LINC00158 (11744669_a_at) / RFU DUSP10 (11751237_a_at) / Fold change /veh DUSP10 (11751237_a_at) / RFU ID3 (11757404_x_at) / Fold change /veh ID3 (11757404_x_at) / RFU PLEKHG5 (11737974_s_at) / Fold change /veh PLEKHG5 (11737974_s_at) / RFU LRRC4B (11730491_at) / Fold change /veh LRRC4B (11730491_at) / RFU GIMAP4 (11747438_a_at) / Fold change /veh GIMAP4 (11747438_a_at) / RFU KRT8 (11758183_x_at) / Fold change /veh KRT8 (11758183_x_at) / RFU CNN1 (11734310_a_at) / Fold change /veh CNN1 (11734310_a_at) / RFU VPS37D (11726825_at) / Fold change /veh VPS37D (11726825_at) / RFU C10orf10 (11716522_x_at) / Fold change /veh C10orf10 (11716522_x_at) / RFU KIR2DL2 /// KIR2DL4 /// KIR2DL5A /// KIR2DL5B /// KIR2DS1 /// KIR2DS2 /// KIR2DS3 /// KIR2DS4 /// KIR3DL3 /// KIR3DL3 /// KIR3DS1 (11738374_at) / Fold change /veh KIR2DL2 /// KIR2DL4 /// KIR2DL5A /// KIR2DL5B /// KIR2DS1 /// KIR2DS2 /// KIR2DS3 /// KIR2DS4 /// KIR3DL3 /// KIR3DL3 /// KIR3DS1 (11738374_at) / RFU C1QL1 (11718748_at) / Fold change /veh C1QL1 (11718748_at) / RFU TMPRSS4 (11747572_a_at) / Fold change /veh TMPRSS4 (11747572_a_at) / RFU HAMP (11756126_x_at) / Fold change /veh HAMP (11756126_x_at) / RFU RNFT2 (11725882_a_at) / Fold change /veh RNFT2 (11725882_a_at) / RFU NR4A2 (11747474_a_at) / Fold change /veh NR4A2 (11747474_a_at) / RFU ABCC12 (11746883_a_at) / Fold change /veh ABCC12 (11746883_a_at) / RFU TMEM136 (11760407_x_at) / Fold change /veh TMEM136 (11760407_x_at) / RFU CLDN22 /// WWC2 (11732394_at) / Fold change /veh CLDN22 /// WWC2 (11732394_at) / RFU HLA-DPB1 (11760878_x_at) / Fold change /veh HLA-DPB1 (11760878_x_at) / RFU SPINT1 (11716480_a_at) / Fold change /veh SPINT1 (11716480_a_at) / RFU GAP43 (11754022_s_at) / Fold change /veh GAP43 (11754022_s_at) / RFU A4GNT (11735810_at) / Fold change /veh A4GNT (11735810_at) / RFU PRB3 (11715151_x_at) / Fold change /veh PRB3 (11715151_x_at) / RFU TUBB4B (11761932_at) / Fold change /veh TUBB4B (11761932_at) / RFU CAPN14 (11732068_a_at) / Fold change /veh CAPN14 (11732068_a_at) / RFU TMCC2 (11721928_a_at) / Fold change /veh TMCC2 (11721928_a_at) / RFU IRGQ (11745062_a_at) / Fold change /veh IRGQ (11745062_a_at) / RFU FAM174B (11720279_a_at) / Fold change /veh FAM174B (11720279_a_at) / RFU TMPRSS4 (11748680_a_at) / Fold change /veh TMPRSS4 (11748680_a_at) / RFU FAM212B (11763350_a_at) / Fold change /veh FAM212B (11763350_a_at) / RFU PLEKHG5 (11743358_a_at) / Fold change /veh PLEKHG5 (11743358_a_at) / RFU ZSCAN30 (11745921_a_at) / Fold change /veh ZSCAN30 (11745921_a_at) / RFU CMKLR1 (11741424_a_at) / Fold change /veh CMKLR1 (11741424_a_at) / RFU LOC101060620 /// MAPK8IP1 (11723275_at) / Fold change /veh LOC101060620 /// MAPK8IP1 (11723275_at) / RFU SPTSSB (11747773_x_at) / Fold change /veh SPTSSB (11747773_x_at) / RFU PRSS12 (11739890_at) / Fold change /veh PRSS12 (11739890_at) / RFU BIN1 (11741810_x_at) / Fold change /veh BIN1 (11741810_x_at) / RFU WNT11 (11732464_a_at) / Fold change /veh WNT11 (11732464_a_at) / RFU C10orf10 (11716521_a_at) / Fold change /veh C10orf10 (11716521_a_at) / RFU C5orf56 (11738089_at) / Fold change /veh C5orf56 (11738089_at) / RFU CYB561 (11721691_x_at) / Fold change /veh CYB561 (11721691_x_at) / RFU ANKRD19P (11752326_a_at) / Fold change /veh ANKRD19P (11752326_a_at) / RFU OR2T12 /// OR2T33 /// OR2T8 (11738714_s_at) / Fold change /veh OR2T12 /// OR2T33 /// OR2T8 (11738714_s_at) / RFU VCAN (11748164_a_at) / Fold change /veh VCAN (11748164_a_at) / RFU JSRP1 (11732532_at) / Fold change /veh JSRP1 (11732532_at) / RFU KRTAP10-11 (11738290_x_at) / Fold change /veh KRTAP10-11 (11738290_x_at) / RFU MYO3A (11730013_a_at) / Fold change /veh MYO3A (11730013_a_at) / RFU EBF3 (11725865_a_at) / Fold change /veh EBF3 (11725865_a_at) / RFU CAMK2N1 (11719241_x_at) / Fold change /veh CAMK2N1 (11719241_x_at) / RFU C5orf56 (11738088_a_at) / Fold change /veh C5orf56 (11738088_a_at) / RFU OLFML3 (11715873_a_at) / Fold change /veh OLFML3 (11715873_a_at) / RFU LOC100653217 /// NTM (11731650_a_at) / Fold change /veh LOC100653217 /// NTM (11731650_a_at) / RFU MAPK11 (11762145_a_at) / Fold change /veh MAPK11 (11762145_a_at) / RFU FIZ1 (11724087_x_at) / Fold change /veh FIZ1 (11724087_x_at) / RFU OASL (11726364_x_at) / Fold change /veh OASL (11726364_x_at) / RFU SOX15 (11748057_x_at) / Fold change /veh SOX15 (11748057_x_at) / RFU CD79A (11719716_a_at) / Fold change /veh CD79A (11719716_a_at) / RFU HIST1H1D (11736915_at) / Fold change /veh HIST1H1D (11736915_at) / RFU CASKIN2 (11723855_a_at) / Fold change /veh CASKIN2 (11723855_a_at) / RFU LOC730098 (11760151_x_at) / Fold change /veh LOC730098 (11760151_x_at) / RFU OR4N2 (11742367_at) / Fold change /veh OR4N2 (11742367_at) / RFU PRRT2 (11749266_a_at) / Fold change /veh PRRT2 (11749266_a_at) / RFU SNX32 (11753110_a_at) / Fold change /veh SNX32 (11753110_a_at) / RFU CDHR5 (11726645_a_at) / Fold change /veh CDHR5 (11726645_a_at) / RFU RCAN1 (11760418_a_at) / Fold change /veh RCAN1 (11760418_a_at) / RFU FAM167A (11723789_a_at) / Fold change /veh FAM167A (11723789_a_at) / RFU FAM26E (11764081_at) / Fold change /veh FAM26E (11764081_at) / RFU ISYNA1 (11749810_s_at) / Fold change /veh ISYNA1 (11749810_s_at) / RFU ACY1 (11761880_at) / Fold change /veh ACY1 (11761880_at) / RFU 11764098_at / Fold change /veh 11764098_at / RFU SAMD14 (11745864_x_at) / Fold change /veh SAMD14 (11745864_x_at) / RFU NPB (11741838_a_at) / Fold change /veh NPB (11741838_a_at) / RFU TMPRSS6 (11731388_a_at) / Fold change /veh TMPRSS6 (11731388_a_at) / RFU KRTAP10-2 (11738614_at) / Fold change /veh KRTAP10-2 (11738614_at) / RFU ARHGAP8 /// PRR5-ARHGAP8 (11727945_x_at) / Fold change /veh ARHGAP8 /// PRR5-ARHGAP8 (11727945_x_at) / RFU KRTAP5-7 /// NADSYN1 (11734609_at) / Fold change /veh KRTAP5-7 /// NADSYN1 (11734609_at) / RFU RASL12 (11751679_a_at) / Fold change /veh RASL12 (11751679_a_at) / RFU CDKN2B (11736163_a_at) / Fold change /veh CDKN2B (11736163_a_at) / RFU PRF1 (11729649_at) / Fold change /veh PRF1 (11729649_at) / RFU, ZNF638 /// ZNF638-IT1 / Fold change vs veh, ZNF638 /// ZNF638-IT1 / RFU, PANK3 / Fold change vs veh, PANK3 / RFU, SH3YL1 / Fold change vs veh, SH3YL1 / RFU, ZEB2 / Fold change vs veh, ZEB2 / RFU, NRIP1 / Fold change vs veh, NRIP1 / RFU, PTTG1IP / Fold change vs veh, PTTG1IP / RFU, CAPN2 / Fold change vs veh, CAPN2 / RFU, MED14 / Fold change vs veh, MED14 / RFU, SNORA58 / Fold change vs veh, SNORA58 / RFU, C1orf63 / Fold change vs veh, C1orf63 / RFU, LRRFIP1 / Fold change vs veh, LRRFIP1 / RFU, NDUFAF7 / Fold change vs veh, NDUFAF7 / RFU, SLC12A2 / Fold change vs veh, SLC12A2 / RFU, IBTK / Fold change vs veh, IBTK / RFU, ESF1 / Fold change vs veh, ESF1 / Fold change vs veh, TMEM50B / RFU, TAOK1 / Fold change vs veh, TAOK1 / RFU, ACBD3 / Fold change vs veh, ACBD3 / RFU, TMA16 / Fold change vs veh, TMA16 / RFU, RWDD3 / Fold change vs veh, RWDD3 / RFU, BCAT1 / Fold change vs veh, BCAT1 / RFU, EDEM3 / Fold change vs veh, EDEM3 / RFU, TMEM33 / Fold change vs veh, TMEM33 / RFU, WDR75 / Fold change vs veh, WDR75 / RFU, AHCTF1 / Fold change vs veh, AHCTF1 / RFU, TFRC / Fold change vs veh, TFRC / RFU, ZDHHC17 / Fold change vs veh, ZDHHC17 / RFU, NOM1 / Fold change vs veh, NOM1 / RFU, ARL8B / Fold change vs veh, ARL8B / RFU, ZBTB11 / Fold change vs veh, ZBTB11 / RFU, TAMM41 / Fold change vs veh, TAMM41 / RFU, KIAA1704 /// LOC100996395 / Fold change vs veh, KIAA1704 /// LOC100996395 / RFU, ING1 / Fold change vs veh, ING1 / RFU, TRMT61B / Fold change vs veh, TRMT61B / RFU, FUBP3 / Fold change vs veh, FUBP3 / RFU, TP53 / Fold change vs veh, TP53 / RFU, TNKS2 / Fold change vs veh, TNKS2 / RFU, ZFP14 / Fold change vs veh, ZFP14 / RFU, ACTR2 / Fold change vs veh, ACTR2 / RFU, PPP3R1 / Fold change vs veh, PPP3R1 / RFU, PIK3R1 / Fold change vs veh, PIK3R1 / RFU, HNRNPA1 / Fold change vs veh, HNRNPA1 / RFU, RNF170 / Fold change vs veh, RNF170 / RFU, ZNF28 / Fold change vs veh, ZNF28 / RFU, RNGTT / Fold change vs veh, RNGTT / RFU, OGT / Fold change vs veh, OGT / RFU, BRD1 / Fold change vs veh, BRD1 / RFU, MARS / Fold change vs veh, MARS / RFU, ZNF655 / Fold change vs veh, ZNF655 / RFU, FAHD1 / Fold change vs veh, FAHD1 / RFU, BDP1 / Fold change vs veh, BDP1 / RFU, LRRCC1 / Fold change vs veh, LRRCC1 / RFU, ARID1A / Fold change vs veh, ARID1A / RFU, ZNF146 / Fold change vs veh, ZNF146 / RFU, ZNF330 / Fold change vs veh, ZNF330 / RFU, GPN3 / Fold change vs veh, GPN3 / RFU, C9orf123 / Fold change vs veh, C9orf123 / RFU, N4BP2L2 / Fold change vs veh, N4BP2L2 / RFU, ARFIP1 / Fold change vs veh, ARFIP1 / RFU, FAM179B / Fold change vs veh, FAM179B / RFU, BCL10 / Fold change vs veh, BCL10 / RFU, UHRF1BP1L / Fold change vs veh, UHRF1BP1L / RFU, BET1 / Fold change vs veh, BET1 / RFU, CNOT2 / Fold change vs veh, CNOT2 / RFU, ZNF268 / Fold change vs veh, ZNF268 / Fold change vs veh, ZNF507 / RFU, DGCR2 / Fold change vs veh, DGCR2 / RFU, WDSUB1 / Fold change vs veh, WDSUB1 / Fold change vs veh, HSP90B1 /// MIR3652 / RFU, ADSS / Fold change vs veh, ADSS / RFU, GK / Fold change vs veh, GK / RFU, ZNF148 / Fold change vs veh, ZNF148 / RFU, TAF9 / Fold change vs veh, TAF9 / RFU, SLC1A5 / Fold change vs veh, SLC1A5 / RFU, SLMO2 / Fold change vs veh, SLMO2 / RFU, ABCC4 / Fold change vs veh, ABCC4 / RFU, LOC101060439 /// RAP1B / Fold change vs veh, LOC101060439 /// RAP1B / RFU, RFX7 / Fold change vs veh, RFX7 / RFU, GTPBP10 / Fold change vs veh, GTPBP10 / RFU, CNEP1R1 / Fold change vs veh, CNEP1R1 / RFU, BIVM-ERCC5 /// ERCC5 / Fold change vs veh, BIVM-ERCC5 /// ERCC5 / RFU, ILF3 / Fold change vs veh, ILF3 / RFU 11762660_at / Fold change /veh 11762660_at / RFU VCAN (11757783_s_at) / Fold change /veh VCAN (11757783_s_at) / RFU DDX43 (11728927_at) / Fold change /veh DDX43 (11728927_at) / RFU KRT8 (11758188_x_at) / Fold change /veh KRT8 (11758188_x_at) / RFU NKD1 (11759106_at) / Fold change /veh NKD1 (11759106_at) / RFU SRD5A1 (11742802_a_at) / Fold change /veh SRD5A1 (11742802_a_at) / RFU TPSAB1 /// TPSB2 (11721975_s_at) / Fold change /veh TPSAB1 /// TPSB2 (11721975_s_at) / RFU GSTM3 (11746129_a_at) / Fold change /veh GSTM3 (11746129_a_at) / RFU IL23R (11737362_x_at) / Fold change /veh IL23R (11737362_x_at) / RFU TMEM51 (11727254_a_at) / Fold change /veh TMEM51 (11727254_a_at) / RFU PIWIL2 (11732686_x_at) / Fold change /veh PIWIL2 (11732686_x_at) / RFU ORM1 (11744905_x_at) / Fold change /veh ORM1 (11744905_x_at) / RFU CCDC152 (11743942_at) / Fold change /veh CCDC152 (11743942_at) / RFU ECM1 (11717891_a_at) / Fold change /veh ECM1 (11717891_a_at) / RFU IL23R (11748794_a_at) / Fold change /veh IL23R (11748794_a_at) / RFU TNFAIP8L3 (11732012_x_at) / Fold change /veh TNFAIP8L3 (11732012_x_at) / RFU MBOAT4 (11741988_at) / Fold change /veh MBOAT4 (11741988_at) / RFU 11764193_at / Fold change /veh 11764193_at / RFU TMEM53 (11763286_at) / Fold change /veh TMEM53 (11763286_at) / RFU MAGEB2 (11727129_at) / Fold change /veh MAGEB2 (11727129_at) / RFU TMEM200A (11744735_a_at) / Fold change /veh TMEM200A (11744735_a_at) / RFU CCDC152 (11751479_a_at) / Fold change /veh CCDC152 (11751479_a_at) / RFU FAM211A (11726209_a_at) / Fold change /veh FAM211A (11726209_a_at) / RFU RGS16 (11746705_a_at) / Fold change /veh RGS16 (11746705_a_at) / RFU VCAN (11755009_s_at) / Fold change /veh VCAN (11755009_s_at) / RFU RHOB (11743442_s_at) / Fold change /veh RHOB (11743442_s_at) / RFU RGS16 (11720943_a_at) / Fold change /veh RGS16 (11720943_a_at) / RFU RGS16 (11720944_at) / Fold change /veh RGS16 (11720944_at) / RFU, VPS4B / Fold change vs veh, VPS4B / RFU, CREB1 / Fold change vs veh, CREB1 / RFU, DNAJC13 / Fold change vs veh, DNAJC13 / RFU, GNAQ / Fold change vs veh, GNAQ / RFU, CDK5R1 / Fold change vs veh, CDK5R1 / RFU, ZRANB3 / Fold change vs veh, ZRANB3 / RFU, CUL4A / Fold change vs veh, CUL4A / RFU, CCNY / Fold change vs veh, CCNY / RFU, UFL1 / Fold change vs veh, UFL1 / RFU, COG3 / Fold change vs veh, COG3 / RFU, DIAPH2 / Fold change vs veh, DIAPH2 / RFU, SKA2 / Fold change vs veh, SKA2 / RFU, AFF3 / Fold change vs veh, AFF3 / RFU, LMF1 / Fold change vs veh, LMF1 / RFU, IPO11 / Fold change vs veh, IPO11 / RFU, DFFB / Fold change vs veh, DFFB / RFU, FOXP1 / Fold change vs veh, FOXP1 / RFU, CARD8 / Fold change vs veh, CARD8 / RFU, STRN3 / Fold change vs veh, STRN3 / RFU, ADK / Fold change vs veh, ADK / RFU, RASSF2 / Fold change vs veh, RASSF2 / RFU, WIPF1 / Fold change vs veh, WIPF1 / RFU, LARP1B / Fold change vs veh, LARP1B / RFU, RASA1 / Fold change vs veh, RASA1 / RFU, RB1 / Fold change vs veh, RB1 / RFU, PPFIA1 / Fold change vs veh, PPFIA1 / RFU, MAT2A / Fold change vs veh, MAT2A / RFU, CCT5 / Fold change vs veh, CCT5 / RFU, WDR92 / Fold change vs veh, WDR92 / RFU, CUX1 / Fold change vs veh, CUX1 / RFU, TTC7A / Fold change vs veh, TTC7A / RFU, TMEM135 / Fold change vs veh, TMEM135 / RFU, DEPTOR / Fold change vs veh, DEPTOR / RFU, CPM / Fold change vs veh, CPM / RFU, DNAJB6 / Fold change vs veh, DNAJB6 / RFU, CACNA2D3 / Fold change vs veh, CACNA2D3 / RFU, DTX4 / Fold change vs veh, DTX4 / RFU, TFCP2 / Fold change vs veh, TFCP2 / RFU, GMCL1 /// GMCL1P1 / Fold change vs veh, GMCL1 /// GMCL1P1 / RFU, AEBP2 / Fold change vs veh, AEBP2 / RFU, SNHG1 /// SNORD22 /// SNORD25 /// SNORD26 /// SNORD27 /// SNORD28 /// SNORD29 /// SNORD31 / Fold change vs veh, SNHG1 /// SNORD22 /// SNORD25 /// SNORD26 /// SNORD27 /// SNORD28 /// SNORD29 /// SNORD31 / Fold change (Aza/veh), C12orf56 (ProbeSet 11735607_a_at) / Fold change (ACY-1035/veh), C12orf56 (ProbeSet 11735607_a_at) / Fold change (Aza/veh), FGFR1OP (ProbeSet 11751329_s_at) / Fold change (ACY-1035/veh), FGFR1OP (ProbeSet 11751329_s_at) / Fold change (Aza/veh), VPS36 (ProbeSet 11739960_a_at) / Fold change (ACY-1035/veh), VPS36 (ProbeSet 11739960_a_at) / RFU SYPL1 (11715823_x_at) / Fold change /veh SYPL1 (11715823_x_at) / RFU IGFBP7 (11715501_s_at) / Fold change /veh IGFBP7 (11715501_s_at) / RFU REEP3 (11722064_at) / Fold change /veh REEP3 (11722064_at) / RFU IGLL1 (11728026_x_at) / Fold change /veh IGLL1 (11728026_x_at): dose or concentration left out as unconfirmed
# Conditions: MV-4-11 cells, 48 hours
compound,measurement,value
Nc1ncn([C@@H]2O[C@H](CO)[C@@H](O)[C@H]2O)c(=O)n1 [azacitidine],Fold change /veh TPSAB1 /// TPSB2 (11721975_s_at),1.21
